The experiment deals with T1, human glucagon receptor (Homo sapiens, UniProt P47871).
T1 construct: expressed in transfected cells; host or cells: BHK cells (parent BHK570, CRE luciferase clone BHK/KZ10-20-48), clone pLJ6'-4-25
The experiment is described as follows: Glucagon receptor binding, 125I-glucagon displacement SPA on isolated membranes. The note with it: displacement of 125I-glucagon from membranes; read-out: IC50 GlucR. The gist of the method:
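Membranes from BHK cells stably expressing human glucagon receptor incubated 2 h at 25 °C with [125I]-glucagon (25 μl of 480 pM solution) and serial compound dilutions in WGA SPA format, pH 7.4 buffer with 0.1% ovalbumin. Albumin at max 0.001% or 0.2% final. IC50 from non-linear regression.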

Numbered stars: 1 amine (or outer) side, 2 acyl side, 3 side chain; on linkers, the order of the positions; unused ones are H or OH. Square brackets hold non-standard residues; d marks the D form. Side chains are listed from the residue outwards. Peptide text beside a SMILES is read from it. * marks the point of attachment. C18 diacid = O=C(O)CCCCCCCCCCCCCCCCC(=O)*; γGlu = O=C(O)[C@H](CCC(=O)[*:2])N[*:1]; Ac4c = NC1(C(=O)O)CCC1; Aib = CC(C)(N)C(=O)O

One may read the IC50 as the point on the concentration scale where inhibition reaches its midpoint.

T1 sequence (P47871 26-477): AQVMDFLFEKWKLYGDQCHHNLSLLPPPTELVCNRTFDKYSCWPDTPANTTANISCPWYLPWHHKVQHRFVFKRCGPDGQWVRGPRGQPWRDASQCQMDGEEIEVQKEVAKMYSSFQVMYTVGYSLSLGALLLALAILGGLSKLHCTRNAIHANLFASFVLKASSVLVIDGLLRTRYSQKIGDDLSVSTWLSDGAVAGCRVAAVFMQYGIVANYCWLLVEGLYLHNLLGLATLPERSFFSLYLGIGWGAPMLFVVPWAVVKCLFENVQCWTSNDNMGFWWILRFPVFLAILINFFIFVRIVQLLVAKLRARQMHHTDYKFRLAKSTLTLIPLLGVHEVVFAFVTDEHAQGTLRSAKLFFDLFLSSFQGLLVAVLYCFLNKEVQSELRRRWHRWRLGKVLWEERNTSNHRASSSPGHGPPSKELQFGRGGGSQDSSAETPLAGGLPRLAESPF

Regarding `CC(C)C[C@H](NC(=O)[C@H](Cc1ccc(O)cc1)NC(=O)[C@H](CCCCN)NC(=O)[C@H](CO)NC(=O)[C@H](CC(C)C)NC(=O)[C@H](CC(=O)O)NC(=O)[C@H](CO)NC(=O)[C@@H](NC(=O)[C@H](Cc1ccccc1)NC(=O)[C@@H](NC(=O)CNC(=O)[C@H](CCC(N)=O)NC(=O)C(C)(C)NC(=O)[C@@H](N)Cc1c[nH]cn1)[C@@H](C)O)[C@@H](C)O)C(=O)N[C@@H](CCC(=O)O)C(=O)N[C@@H](CO)C(=O)N[C@@H](CCCNC(=N)N)C(=O)N[C@@H](CCCNC(=N)N)C(=O)N[C@@H](C)C(=O)N[C@@H](CCCNC(=N)N)C(=O)N[C@@H](CCC(=O)O)C(=O)N[C@@H](Cc1ccccc1)C(=O)N[C@H](C(=O)N[C@@H](CCC(N)=O)C(=O)N[C@@H](Cc1c[nH]c2ccccc12)C(=O)N[C@@H](CC(C)C)C(=O)N[C@@H](CC(C)C)C(=O)N[C@@H](CCCCNC(=O)CC[C@H](NC(=O)CC[C@H](NC(=O)[C@H](CO)NC(=O)[C@H](CCC(=O)O)NC(=O)[C@H](CO)NC(=O)CC[C@H](NC(=O)CC[C@H](NC(=O)CCCCCCCCCCCCCCCCC(=O)O)C(=O)O)C(=O)O)C(=O)O)C(=O)O)C(=O)N[C@H](C(N)=O)[C@@H](C)O)C(C)C` [Example 67, N^ε28-[(4S)-4-carboxy-4-[[(4S)-4-carboxy-4-[[(2S)-2-[[(2S)-4-carboxy-2-[[(2S)-2-[[(4S)-4-carboxy-4-[[(4S)-4-carboxy-4-(17-carboxyheptadecanoylamino)butanoyl]amino]butanoyl]amino]-3-hydroxypropanoyl]amino]butanoyl]amino]-3-hydroxypropanoyl]amino]butanoyl]amino]butanoyl]-[Aib2,Leu10,Glu15,Arg20,Glu21,Leu27,Lys28]-Glucagon amide] (H-H[Aib]QGTFTSDLSKYLESRRAREFVQWLLK([γGlu-γGlu-Ser-Glu-Ser-γGlu-γGlu-C18 diacid])T-NH2; N-terminus assumed), the IC50 worked out at 1.5 nM. On to `CC(C)C[C@H](NC(=O)[C@H](Cc1ccc(O)cc1)NC(=O)[C@H](CCCCN)NC(=O)[C@H](CO)NC(=O)[C@H](CC(C)C)NC(=O)[C@H](CC(=O)O)NC(=O)[C@H](CO)NC(=O)[C@@H](NC(=O)[C@H](Cc1ccccc1)NC(=O)[C@@H](NC(=O)CNC(=O)[C@H](CCC(N)=O)NC(=O)C1(NC(=O)[C@@H](N)Cc2c[nH]cn2)CCC1)[C@@H](C)O)[C@@H](C)O)C(=O)N[C@@H](CCC(=O)O)C(=O)N[C@@H](CO)C(=O)N[C@@H](CCCCN)C(=O)N[C@@H](CCCNC(=N)N)C(=O)N[C@@H](C)C(=O)N[C@@H](CCCNC(=N)N)C(=O)N[C@@H](CCC(=O)O)C(=O)N[C@@H](Cc1ccccc1)C(=O)N[C@H](C(=O)N[C@@H](CCC(N)=O)C(=O)N[C@@H](Cc1c[nH]c2ccccc12)C(=O)N[C@@H](CC(C)C)C(=O)N[C@@H](CC(C)C)C(=O)N[C@@H](CCCCNC(=O)CC[C@H](NC(=O)CC[C@H](NC(=O)[C@H](CO)NC(=O)[C@H](CCC(=O)O)NC(=O)[C@H](CO)NC(=O)CC[C@H](NC(=O)CC[C@H](NC(=O)CCCCCCCCCCCCCCCCC(=O)O)C(=O)O)C(=O)O)C(=O)O)C(=O)O)C(=O)N[C@H](C(N)=O)[C@@H](C)O)C(C)C` [Example 68, N^ε28-[(4S)-4-carboxy-4-[[(4S)-4-carboxy-4-[[(2S)-2-[[(2S)-4-carboxy-2-[[(2S)-2-[[(4S)-4-carboxy-4-[[(4S)-4-carboxy-4-(17-carboxyheptadecanoylamino)butanoyl]amino]butanoyl]amino]-3-hydroxypropanoyl]amino]butanoyl]amino]-3-hydroxypropanoyl]amino]butanoyl]amino]butanoyl]-[Acb2,Leu10,Glu15,Lys17,Arg20,Glu21,Leu27,Lys28]-Glucagon amide] (H-H[Ac4c]QGTFTSDLSKYLESKRAREFVQWLLK([γGlu-γGlu-Ser-Glu-Ser-γGlu-γGlu-C18 diacid])T-NH2; N-terminus assumed), for which the IC50 stood at 0.6 nM.

The values above are taken from patent publication US9474790B2, “Stable, protracted GLP-1/glucagon receptor co-agonists for medical use” (Novo Nordisk A/S, priority 2013, dated 2016).
